Drawing on ChEMBL document CHEMBL5291721, “A preclinical secondary pharmacology resource illuminates target-adverse drug reaction associations of marketed drugs” (Nat Commun, 2023), this text covers AC50 for 20 molecules.

Experiment [1] concerns the target cGMP-inhibited 3',5'-cyclic phosphodiesterase 3A (Homo sapiens, UniProt Q14432). It counts as functional.
The target in experiment [2] is 3',5'-cyclic-AMP phosphodiesterase 4D (Homo sapiens, UniProt Q08499). It counts as functional.
In experiment [3] the target is T1, Alpha-1A adrenergic receptor (Homo sapiens, UniProt P35348).
T1 sequence (P35348 whole entry): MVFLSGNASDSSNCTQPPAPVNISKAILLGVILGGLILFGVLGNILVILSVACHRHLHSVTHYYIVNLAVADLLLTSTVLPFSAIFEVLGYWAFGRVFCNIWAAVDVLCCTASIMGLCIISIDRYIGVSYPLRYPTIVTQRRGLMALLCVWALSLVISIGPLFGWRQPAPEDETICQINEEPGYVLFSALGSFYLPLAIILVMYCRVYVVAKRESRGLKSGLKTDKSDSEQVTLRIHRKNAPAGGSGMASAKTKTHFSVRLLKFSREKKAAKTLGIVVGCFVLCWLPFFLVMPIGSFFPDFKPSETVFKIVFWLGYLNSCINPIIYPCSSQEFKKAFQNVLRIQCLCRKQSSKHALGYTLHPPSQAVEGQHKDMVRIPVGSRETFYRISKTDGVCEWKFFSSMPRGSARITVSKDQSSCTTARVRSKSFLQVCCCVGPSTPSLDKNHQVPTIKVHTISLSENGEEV
It counts as functional, cell-based.

Experiment [4] concerns the target T2, Muscarinic acetylcholine receptor M2 (Homo sapiens, UniProt P08172).
T2 sequence (P08172 whole entry): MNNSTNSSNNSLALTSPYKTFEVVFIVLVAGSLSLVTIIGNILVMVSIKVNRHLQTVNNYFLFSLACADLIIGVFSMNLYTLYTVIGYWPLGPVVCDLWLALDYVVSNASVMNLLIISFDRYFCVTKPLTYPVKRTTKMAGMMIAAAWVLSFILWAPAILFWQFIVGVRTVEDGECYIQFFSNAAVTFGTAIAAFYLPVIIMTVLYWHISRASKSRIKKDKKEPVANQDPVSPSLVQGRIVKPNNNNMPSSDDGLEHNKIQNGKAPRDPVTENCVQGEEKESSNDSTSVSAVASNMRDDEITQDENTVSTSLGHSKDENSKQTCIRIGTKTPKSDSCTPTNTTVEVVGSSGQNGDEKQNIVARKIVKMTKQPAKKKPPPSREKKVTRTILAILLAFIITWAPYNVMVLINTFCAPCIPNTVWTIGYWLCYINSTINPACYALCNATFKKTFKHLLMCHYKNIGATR
It counts as functional, cell-based.

Experiment [5] addresses Sodium-dependent serotonin transporter (Homo sapiens, UniProt P31645).
Another experiment addresses T3, Glucocorticoid receptor (Homo sapiens, UniProt P04150).
T3 sequence (P04150 whole entry): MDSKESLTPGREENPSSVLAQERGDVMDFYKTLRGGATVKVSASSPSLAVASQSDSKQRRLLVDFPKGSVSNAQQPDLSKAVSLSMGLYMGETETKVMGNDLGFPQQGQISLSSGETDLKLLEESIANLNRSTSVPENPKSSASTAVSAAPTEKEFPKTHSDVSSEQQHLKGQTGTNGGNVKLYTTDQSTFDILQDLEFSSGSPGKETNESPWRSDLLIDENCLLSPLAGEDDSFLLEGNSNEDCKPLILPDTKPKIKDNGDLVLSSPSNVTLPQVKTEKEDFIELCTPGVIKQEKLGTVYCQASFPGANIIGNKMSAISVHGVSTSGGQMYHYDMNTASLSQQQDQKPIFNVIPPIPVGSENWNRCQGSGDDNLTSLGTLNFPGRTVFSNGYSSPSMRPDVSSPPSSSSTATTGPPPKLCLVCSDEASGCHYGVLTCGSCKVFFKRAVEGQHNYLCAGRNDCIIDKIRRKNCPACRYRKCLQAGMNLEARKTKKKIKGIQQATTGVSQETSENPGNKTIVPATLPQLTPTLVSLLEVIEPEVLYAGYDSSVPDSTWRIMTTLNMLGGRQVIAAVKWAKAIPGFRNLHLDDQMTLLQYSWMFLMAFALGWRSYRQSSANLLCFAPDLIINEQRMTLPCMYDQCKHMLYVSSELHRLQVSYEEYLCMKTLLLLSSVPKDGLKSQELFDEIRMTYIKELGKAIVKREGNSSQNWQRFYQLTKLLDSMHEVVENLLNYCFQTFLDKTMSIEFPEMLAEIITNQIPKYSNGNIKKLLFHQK

In another experiment the target is T4, Estrogen receptor (Homo sapiens, UniProt P03372).
T4 sequence (P03372 whole entry): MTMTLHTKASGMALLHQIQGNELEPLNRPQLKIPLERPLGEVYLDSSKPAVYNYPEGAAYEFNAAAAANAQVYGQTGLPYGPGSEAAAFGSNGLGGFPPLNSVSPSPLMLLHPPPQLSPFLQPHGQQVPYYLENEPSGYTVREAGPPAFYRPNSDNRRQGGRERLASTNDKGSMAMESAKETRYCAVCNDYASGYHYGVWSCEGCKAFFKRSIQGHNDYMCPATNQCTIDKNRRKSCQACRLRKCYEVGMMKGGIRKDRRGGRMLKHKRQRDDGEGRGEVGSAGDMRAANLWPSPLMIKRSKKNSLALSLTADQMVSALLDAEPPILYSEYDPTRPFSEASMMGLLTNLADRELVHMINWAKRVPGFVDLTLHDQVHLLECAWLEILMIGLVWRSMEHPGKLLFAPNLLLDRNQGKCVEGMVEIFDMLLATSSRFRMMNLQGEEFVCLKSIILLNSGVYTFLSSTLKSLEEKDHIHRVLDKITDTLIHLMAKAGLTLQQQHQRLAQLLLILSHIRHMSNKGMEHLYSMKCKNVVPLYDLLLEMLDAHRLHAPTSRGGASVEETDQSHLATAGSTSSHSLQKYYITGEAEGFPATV

Another experiment has as its target Mu-type opioid receptor (Homo sapiens, UniProt P35372). The experiment can be described thus: biochemical. It counts as functional.
Also: assay procedure not described here.

Chain of Mu-type opioid receptor (P35372 whole entry): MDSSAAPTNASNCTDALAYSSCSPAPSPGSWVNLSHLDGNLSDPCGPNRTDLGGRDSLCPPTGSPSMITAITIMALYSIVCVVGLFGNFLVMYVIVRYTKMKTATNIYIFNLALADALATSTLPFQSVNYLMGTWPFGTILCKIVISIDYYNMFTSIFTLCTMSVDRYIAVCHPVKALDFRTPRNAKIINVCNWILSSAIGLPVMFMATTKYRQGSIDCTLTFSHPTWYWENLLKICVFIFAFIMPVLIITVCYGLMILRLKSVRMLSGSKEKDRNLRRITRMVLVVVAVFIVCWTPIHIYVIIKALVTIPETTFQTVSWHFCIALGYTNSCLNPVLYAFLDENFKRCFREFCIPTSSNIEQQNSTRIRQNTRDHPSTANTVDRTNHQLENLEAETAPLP
Chain of cGMP-inhibited 3',5'-cyclic phosphodiesterase 3A (Q14432 whole entry): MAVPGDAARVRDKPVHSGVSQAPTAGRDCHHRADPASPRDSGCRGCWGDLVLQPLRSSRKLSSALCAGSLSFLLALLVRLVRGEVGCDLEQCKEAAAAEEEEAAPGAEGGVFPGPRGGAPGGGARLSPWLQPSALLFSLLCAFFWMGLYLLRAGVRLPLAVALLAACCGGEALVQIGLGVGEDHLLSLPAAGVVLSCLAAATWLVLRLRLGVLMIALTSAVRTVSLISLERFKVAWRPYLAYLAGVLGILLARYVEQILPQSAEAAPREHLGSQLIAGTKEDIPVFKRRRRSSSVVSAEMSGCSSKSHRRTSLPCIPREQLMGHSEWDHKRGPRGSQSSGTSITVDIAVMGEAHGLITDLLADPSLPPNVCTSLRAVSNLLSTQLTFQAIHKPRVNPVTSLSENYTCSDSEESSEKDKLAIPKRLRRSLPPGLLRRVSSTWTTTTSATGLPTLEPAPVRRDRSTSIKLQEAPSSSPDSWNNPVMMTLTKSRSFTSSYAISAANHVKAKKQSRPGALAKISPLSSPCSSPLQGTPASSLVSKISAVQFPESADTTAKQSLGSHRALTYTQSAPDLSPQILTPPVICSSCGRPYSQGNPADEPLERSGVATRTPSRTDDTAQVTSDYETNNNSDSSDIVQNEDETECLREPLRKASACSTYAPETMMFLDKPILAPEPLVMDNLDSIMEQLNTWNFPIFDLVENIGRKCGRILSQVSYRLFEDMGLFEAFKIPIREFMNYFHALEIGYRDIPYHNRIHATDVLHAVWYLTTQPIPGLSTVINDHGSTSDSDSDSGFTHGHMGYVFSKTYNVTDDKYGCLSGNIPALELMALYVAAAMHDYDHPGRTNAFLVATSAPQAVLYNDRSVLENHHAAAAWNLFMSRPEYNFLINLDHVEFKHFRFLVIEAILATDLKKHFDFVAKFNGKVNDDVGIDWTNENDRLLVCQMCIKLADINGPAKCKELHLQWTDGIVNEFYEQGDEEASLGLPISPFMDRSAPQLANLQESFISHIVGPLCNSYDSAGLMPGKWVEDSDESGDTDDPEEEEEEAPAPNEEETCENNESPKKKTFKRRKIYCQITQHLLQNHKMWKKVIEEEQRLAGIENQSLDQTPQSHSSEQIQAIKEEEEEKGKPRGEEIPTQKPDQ
Chain of Sodium-dependent serotonin transporter (P31645 whole entry): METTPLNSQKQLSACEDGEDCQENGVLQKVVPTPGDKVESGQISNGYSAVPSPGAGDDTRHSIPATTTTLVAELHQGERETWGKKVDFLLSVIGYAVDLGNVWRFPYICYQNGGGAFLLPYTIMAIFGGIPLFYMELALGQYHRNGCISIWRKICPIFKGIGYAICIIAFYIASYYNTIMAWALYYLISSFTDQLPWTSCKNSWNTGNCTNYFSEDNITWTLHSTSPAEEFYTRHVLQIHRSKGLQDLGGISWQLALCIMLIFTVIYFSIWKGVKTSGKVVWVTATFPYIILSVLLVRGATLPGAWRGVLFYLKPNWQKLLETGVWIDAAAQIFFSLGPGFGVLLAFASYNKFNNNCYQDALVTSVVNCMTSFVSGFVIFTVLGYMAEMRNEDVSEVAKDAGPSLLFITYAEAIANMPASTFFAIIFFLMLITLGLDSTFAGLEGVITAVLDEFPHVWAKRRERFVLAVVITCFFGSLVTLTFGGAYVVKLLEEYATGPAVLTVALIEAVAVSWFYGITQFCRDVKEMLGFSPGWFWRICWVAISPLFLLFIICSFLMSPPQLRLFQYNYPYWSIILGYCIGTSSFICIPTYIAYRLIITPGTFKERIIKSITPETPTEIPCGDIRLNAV
Chain of 3',5'-cyclic-AMP phosphodiesterase 4D (Q08499 whole entry): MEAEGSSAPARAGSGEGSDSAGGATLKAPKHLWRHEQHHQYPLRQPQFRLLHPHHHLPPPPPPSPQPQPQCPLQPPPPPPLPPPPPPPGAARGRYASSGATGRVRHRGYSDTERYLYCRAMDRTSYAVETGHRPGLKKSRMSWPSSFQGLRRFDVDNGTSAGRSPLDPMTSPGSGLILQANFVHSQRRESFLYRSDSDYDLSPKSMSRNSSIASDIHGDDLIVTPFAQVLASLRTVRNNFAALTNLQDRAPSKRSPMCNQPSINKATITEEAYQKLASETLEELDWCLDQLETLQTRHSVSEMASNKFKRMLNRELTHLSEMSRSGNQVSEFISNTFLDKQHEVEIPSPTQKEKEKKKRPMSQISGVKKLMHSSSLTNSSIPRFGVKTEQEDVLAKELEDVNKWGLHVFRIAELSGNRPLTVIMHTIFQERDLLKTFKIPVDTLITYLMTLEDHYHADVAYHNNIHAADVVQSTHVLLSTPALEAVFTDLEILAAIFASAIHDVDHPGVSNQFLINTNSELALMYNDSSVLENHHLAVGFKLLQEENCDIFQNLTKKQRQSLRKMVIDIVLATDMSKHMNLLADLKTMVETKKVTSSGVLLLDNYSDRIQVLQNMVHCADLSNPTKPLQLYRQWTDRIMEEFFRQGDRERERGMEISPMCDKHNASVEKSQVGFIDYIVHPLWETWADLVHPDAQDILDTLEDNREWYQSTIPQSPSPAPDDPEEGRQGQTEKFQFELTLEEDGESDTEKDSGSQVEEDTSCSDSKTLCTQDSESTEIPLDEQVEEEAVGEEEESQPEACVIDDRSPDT

On to `CCCCOc1cc(C(=O)NCCN(CC)CC)c2ccccc2n1` [DIBUCAINE], for which the AC50 (commonly the concentration at which the activity in the assay is half-maximal) in experiment [1] is greater than 30 µM; in experiment [2], greater than 30 µM; in experiment [3], greater than 30 µM; in experiment [4], greater than 10 µM; in experiment [5], greater than 10 µM; on Glucocorticoid receptor, greater than 10 µM.
`Cc1c(C(=O)Nc2ccc(N3C[C@@H](C)O[C@@H](C)C3)nc2)cccc1-c1ccc(OC(F)(F)F)cc1` [SONIDEGIB]: the AC50 was greater than 30 µM in experiment [1]; greater than 30 µM in experiment [2]; greater than 30 µM on Estrogen receptor; greater than 10 µM in experiment [5]; greater than 30 µM on Glucocorticoid receptor.
Turning to `CN1CC(=O)N2[C@H](c3ccc4c(c3)OCO4)c3[nH]c4ccccc4c3C[C@@H]2C1=O`, the AC50 is greater than 30 µM in experiment [1]; greater than 30 µM on Estrogen receptor; greater than 10 µM in experiment [4]; 34.8 µM in experiment [5]; greater than 30 µM on Glucocorticoid receptor.
In the case of `CN1CCC2=C(C1)C(c1ccccc1)c1ccccc12` (stereo not drawn) [PHENINDAMINE], the half-maximal activity concentration (AC50) in experiment [1] is greater than 30 µM; in experiment [2] it was 8.7 µM; at Estrogen receptor, greater than 30 µM; in experiment [4] it was greater than 10 µM; in experiment [5] it was greater than 30 µM; on Glucocorticoid receptor, greater than 30 µM.
In the case of `C#CC1(OC(N)=O)CCCCC1` [ETHINAMATE], the AC50 was greater than 30 µM in experiment [1]; greater than 30 µM in experiment [2]; greater than 10 µM at Estrogen receptor; greater than 10 µM in experiment [4]; greater than 10 µM in experiment [5]; greater than 10 µM on Glucocorticoid receptor.
With `CN1C(=O)CC(=O)N(c2ccccc2)c2cc(Cl)ccc21` [CLOBAZAM], the AC50 in experiment [1] was greater than 30 µM; in experiment [2] it was 10 µM; at Estrogen receptor, greater than 10 µM; in experiment [4] it was greater than 10 µM; in experiment [5] it was greater than 10 µM; at Glucocorticoid receptor, greater than 10 µM.
In the case of `CN1CCc2cccc3c2[C@H]1Cc1ccc(O)c(O)c1-3` [APOMORPHINE], the AC50 is greater than 30 µM in experiment [1]; 2.2 µM in experiment [2]; 1.47 µM on Estrogen receptor; greater than 10 µM in experiment [4]; 21.9 µM in experiment [5]; greater than 30 µM at Glucocorticoid receptor.
Regarding `C=C1CC[C@@]2(O)[C@H]3Cc4ccc(O)c5c4[C@@]2(CCN3CC2CC2)[C@H]1O5`, the AC50 (in experiment [1]; in experiment [2]; in experiment [4]; in experiment [5]; on Glucocorticoid receptor) was greater than 30 µM throughout.
With `[H]/N=C(/N)c1ccc(NCc2nc3cc(C(=O)N(CCC(=O)O)c4ccccn4)ccc3n2C)cc1` [DABIGATRAN], the AC50 in experiment [1], in experiment [2], in experiment [3], in experiment [4] and in experiment [5] was greater than 30 µM each time.
In the case of `Cc1c(O)c(=O)ccn1C` [DEFERIPRONE], the AC50 (in experiment [1]; in experiment [2]; in experiment [3]; on Estrogen receptor; in experiment [4]; on Glucocorticoid receptor) was greater than 30 µM throughout. Also, on Mu-type opioid receptor, the AC50 is greater than 30 µM.
On to `CC(=O)NS(=O)(=O)c1ccc(N)cc1` [SULFACETAMIDE], for which the AC50 in experiment [1] was greater than 30 µM; in experiment [2], greater than 30 µM; at Estrogen receptor, greater than 10 µM; in experiment [4] it was greater than 10 µM; in experiment [5], greater than 10 µM; at Glucocorticoid receptor, greater than 10 µM.
In the case of `CN1CCN(C(=O)OC2c3nccnc3C(=O)N2c2ccc(Cl)cn2)CC1` (stereo not drawn) [ZOPICLONE], the concentration at half-maximal activity (AC50) in experiment [1] was greater than 30 µM; in experiment [2] it was greater than 30 µM; in experiment [3], greater than 30 µM; in experiment [4] it was greater than 10 µM; in experiment [5] it was greater than 30 µM.
As for `CN1C(=O)CC(c2ccccc2)C1=O` (stereo not drawn) [PHENSUXIMIDE], the AC50 was greater than 30 µM in experiment [1]; greater than 30 µM in experiment [2]; greater than 10 µM in experiment [4]; greater than 10 µM in experiment [5]; greater than 10 µM at Glucocorticoid receptor.
On to `CC[C@]1(O)C[C@@H]2CN(CCc3c([nH]c4ccccc34)[C@@](C(=O)OC)(c3cc4c(cc3OC)N(C)[C@H]3[C@@](O)(C(N)=O)[C@H](O)[C@]5(CC)C=CCN6CC[C@]43[C@@H]65)C2)C1` [VINDESINE], for which the AC50 (in experiment [1]; in experiment [2]; in experiment [3]; at Estrogen receptor; in experiment [4]; at Glucocorticoid receptor) was greater than 30 µM each time. In addition, the AC50 at Mu-type opioid receptor is greater than 30 µM.
Regarding TOCOFERSOLAN, the AC50 in experiment [1] is greater than 10 µM; in experiment [2], greater than 10 µM; in experiment [3], greater than 30 µM; on Estrogen receptor, greater than 30 µM; in experiment [4], greater than 30 µM; at Glucocorticoid receptor, greater than 30 µM. The AC50 on Mu-type opioid receptor was greater than 30 µM.
For the molecule `CC(C)(Oc1ccc(C2CC2(Cl)Cl)cc1)C(=O)O` (stereo not drawn) [CIPROFIBRATE], the AC50 (in experiment [1]; in experiment [2]; in experiment [3]; at Estrogen receptor; in experiment [4]; on Glucocorticoid receptor) was greater than 30 µM each time. This molecule also came in with an AC50 at Mu-type opioid receptor greater than 30 µM.
For `Nc1nc2ccc(OC(F)(F)F)cc2s1` [RILUZOLE], the AC50 in experiment [1] was greater than 30 µM; in experiment [2], 14 µM; in experiment [3] it was greater than 30 µM; at Estrogen receptor it was greater than 30 µM; in experiment [4] it was greater than 30 µM; at Glucocorticoid receptor, greater than 30 µM. In addition, on Mu-type opioid receptor, the AC50 is greater than 30 µM.
Turning to `Cc1cccc(C)c1NC(=O)C1CCCCN1C` (stereo not drawn) [MEPIVACAINE], the AC50 (in experiment [1]; in experiment [2]; in experiment [3]; on Estrogen receptor; in experiment [4]; on Glucocorticoid receptor) was greater than 30 µM throughout. For the same molecule, the AC50 at Mu-type opioid receptor is greater than 30 µM.
As for `CN1CC[C@]23CCCC[C@H]2[C@H]1Cc1ccc(O)cc13` [LEVORPHANOL], the half-maximal activity concentration (AC50) in experiment [1] is greater than 30 µM; in experiment [2], greater than 30 µM; on Estrogen receptor, greater than 10 µM; in experiment [4] it was greater than 10 µM; in experiment [5], 0.173 µM.
On to `C1COC(NC(C2CC2)C2CC2)=N1` [RILMENIDINE], for which the AC50 in experiment [1] was greater than 30 µM; in experiment [2], greater than 30 µM; on Estrogen receptor, greater than 30 µM; in experiment [4], greater than 10 µM; in experiment [5], greater than 30 µM.
